What was measured:
[1] = system: CD4+ T cells from tumor-draining LN of TS/A-LACK tumor-bearing 16.2β mice; assay: IL-7-driven accumulation of fast-proliferating memory CD4+ T cells with inhibitors; assay type: cell-based; conditions: IL-7-driven cultures, 7 days
Description: FIG. 11. Intermediate memory CD4^+ T cells accumulate in the presence of IL-7 in a cell-density dependent, CsA-sensitive manner. Cells derived from the axillary, brachial and inguinal LN of naïve (A, B) and TS/A-LACK tumor-bearing (C-E) 16.20 mice were labeled with CFSE and respectively cultured for 7 days in plain medium, in the presence of LACK peptide (Ag) (A, B) or IL-7 (C-E) in the absence (nil) or in the presence of the indicated inhibitors. At the end of the culture the cells were stimulated for 5 h with L/28 aAPCs, and intracellular cytokine release was determined. A-D) Histograms show the CFSE dilution profile of equivalent numbers of (7×10^4) CD4^+ T cells. In A and C the thin lines reflect the CFSE profile of CD4+ T cells cultured in plain medium, while the thick lines depict the CFSE profile of CD4+ T cells cultured in Ag or IL-7, respectively. […]
(§1) 5 μm polystyrene sulfate latex beads (Interfacial Dynamics) were coated with I-A^d/LACK dimers (20 μg/ml) and anti-CD28 mAb (37.51; 2 μg/ml) (LACK aAPC) or with anti-CD28 mAb only (control aAPC). Coating of the proteins was monitored by flow cytometry analysis. […] The total number of Ag-specific IL-2^+/IFN-γ^+ T cells was determined by multiplying the percentage by the total number of Trypan Blue-negative LN cells.

[2] = system: naïve CD4+ T cells of 16.2β mice stimulated with LACK-pulsed APC; assay: Ag-driven proliferation of naive T cells with inhibitors (CFSE); assay type: cell-based; conditions: 7 days
Description: FIG. 11. Intermediate memory CD4^+ T cells accumulate in the presence of IL-7 in a cell-density dependent, CsA-sensitive manner. Cells derived from the axillary, brachial and inguinal LN of naïve (A, B) and TS/A-LACK tumor-bearing (C-E) 16.20 mice were labeled with CFSE and respectively cultured for 7 days in plain medium, in the presence of LACK peptide (Ag) (A, B) or IL-7 (C-E) in the absence (nil) or in the presence of the indicated inhibitors. At the end of the culture the cells were stimulated for 5 h with L/28 aAPCs, and intracellular cytokine release was determined. A-D) Histograms show the CFSE dilution profile of equivalent numbers of (7×10^4) CD4^+ T cells. In A and C the thin lines reflect the CFSE profile of CD4+ T cells cultured in plain medium, while the thick lines depict the CFSE profile of CD4+ T cells cultured in Ag or IL-7, respectively. In B and D, thin line: cells cultured in the absence of the inhibitor, thick line: cells cultured in the presence of the inhibitor. E) Dot plots are shown after gating on viable CD4^+ T cells. Percentages indicate the frequency of LACK-specific cytokine secreting cells.
(§2) Twenty days after tumor cell injection mice were sacrificed and the axillary, brachial and inguinal peripheral lymph nodes (LN) draining and distal (non draining LN) to the site of tumor growth were recovered. […]

[3] = system: CD4+ T cells from TS/A-LACK tumor draining LN; assay: TO-PRO-3 viability of CFSE-labeled LN cultures maintained in cytokines; assay type: cell-based, mice; conditions: total CD4+ cells, after a week in culture with the cytokine alone
Description: (§3) FIG. 5. IL-7 and IL-2 favor T cell survival and the optimal expression of Bcl-2. Cells from TS/A-LACK tumor draining LN were labeled with the CFSE vital dye and cultured in the absence (−) or in the presence of IL-7, IL-2, IL-15 and IL-6 alone. After 7 days, cells were recovered and stained with anti-CD4 mAb and TO-PRO-3 (A) and with anti-Bcl-2 mAb (B, C). A) representative dot plots of total CD4^+ cells are shown. The frequencies of total CD4^+ TOPRO-3^+ (brackets) and of CFSE dim, TO-PRO-3″ cells (bold) are reported. B-C) events are shown after physical gating on viable CD4^+ T lymphocytes. C) thin line: isotype control; thin lines-shaded profile: anti-Bcl-2 Ab, medium cultured cells; thick lines: anti-Bcl-2 Ab, cytokine-cultured cells. The experiment is representative of 2 independent determinations.
as §2, with “recovered. In the experiments of dendritic cell (DC) vaccination, mice were sacrificed fourteen days after DC administration and the axillary, brachial and inguinal LN were surgically excised.” for “recovered.”

[4] = system: CD4+ T cells from TS/A-LACK tumor draining LN; assay: Bcl-2 expression in CFSE-labeled LN cultures maintained in cytokines; assay type: cell-based, mice; conditions: 7 days culture with the cytokine alone
Description: as §3
FIG. 6. Phenotype and subset representation of lymphocytes maintained in IL-7 and IL-2. CFSE-labeled TS/A-LACK-tumor-draining LN cultures were maintained for a week in the presence of IL-7 or IL-2. Thereafter the cells were stained with anti CD4, CD44, CD25, CD127, and CD132 mAbs. A) representative dot plots report the expression levels of CD44, CD62L, CD25, CD127, and CD132 of viable CD4+. B) overlay of CD4^+, CFSE dim cells derived from IL-7 (thin lines) and IL-2 (thick lines) cultures in the absence of Ag-stimulation are shown. […]

[5] = system: AH-1-specific CD8+ T cells; assay: Cytokine-driven culture of tumor-draining LN, AH-1-specific intracellular cytokine release; assay type: cell-based, BALB/c mice; conditions: 7 days culture without Ag re-stimulation; undetectable ex vivo
Protocol: FIG. 10. IL-7 favors the accumulation of tumor-specific memory CD8^+ T cells otherwise undetectable ex vivo. A) BALB/c mice (5 mice per group) were challenged with 3×10^5 TS/A-LACK tumor cells and sacrificed 21 days later. Cells from pools of tumor draining LN (A-C) were analyzed ex vivo (A) and after 7 days in culture in the absence or in the presence of IL-7, IL-2, IL-15, IL-6 (B-C). A) Representative dot plots depict IL-2 and IFN-γ production by KJ1.26^− CD8^+ T cells. The frequency (A, B) and total number (C) of AH-1-specific cytokine-producing KJ1.26^− CD8^+ T cells is reported.
as §2, with “recovered. In the experiments of dendritic cell (DC) vaccination, mice were sacrificed fourteen days after DC administration and the axillary, brachial and inguinal LN were surgically excised.” for “recovered.”
as §1

[6] = system: LACK-specific CD4+ T cells from LN of TS/A-LACK tumor-bearing BALB/c mice; assay: Ag-free short-term culture: I-Ad/LACK multimer staining, LACK-specific intracellular cytokine release, CFSE dilution; assay type: cell-based; conditions: CFSE-labeled LN cells, 7 days, versus nil cultures
Protocol: Twenty days after tumor cell injection mice were sacrificed and the axillary, brachial and inguinal peripheral lymph nodes (LN) draining and distal (non draining LN) to the site of tumor growth were recovered. In the experiments of dendritic cell (DC) vaccination, mice were sacrificed fourteen days after DC administration and the axillary, brachial and inguinal LN were surgically excised. LN cells were cultured in 24 well plates at the density of 5×10^6 in complete medium in the absence or in the presence of recombinant murine IL-7 (200 ng/ml), IL-2 (20 ng/ml), IL-6 (45 ng/ml), or IL-15 (100 ng/ml) (all from Peprotech). In parallel cultures, cells were in vitro stimulated with the LACK-derived MHC II-restricted peptide (5 (25)) and 5×10^6 irradiated syngeneic splenocytes. As a control similar cultures were set up from syngeneic naïve mice. […]
as §1

Compound | effect on IL-7-driven accumulation of fast-dividing CFSEdim CD4+ T cells and LACK-specific cells [1] | effect on Ag-driven T cell proliferation [2] | TO-PRO-3+ dead cells [3] [%] | CD4+ T cells expressing optimal (high) Bcl-2 levels [4] [%] | frequency and total number of AH-1-specific CD8+ T cells [5] | in vitro proliferation of CD4+ T cells and accumulation of LACK-specific CD4+ T cells [6]
CC(C)(C)n1nc(-c2ccc(Cl)cc2)c2c(N)ncnc21 [PP2] | only partially inhibited | – | – | – | – | –
Oc1ccc(-c2nc(-c3ccncc3)c(-c3ccc(F)cc3)[nH]2)cc1 [SB202190] | only partially inhibited | failed to inhibit | – | – | – | –
IL-6: recombinant IL-6 used as negative control cytokine | – | – | 73 | 10.5 | not increased | failed to support

From patent publication US11395835B2, “Use of common gamma chain cytokines for the visualization, isolation and genetic modification of memory T lymphocytes” (OSPEDALE SAN RAFFAELE S.R.L., priority 2005, dated 2022)
